Here are results for 7 molecules from patent US20260034200A1, “TOLEROGENIC PEPTIDES” (University of Birmingham, priority 2022, published 2026).

Ends that are not written are not given here.

The subject of data set [1] is GAD65 P10-specific T-cell hybridomas. In words: T-cell hybridoma screen with Priess cells as APCs, IL-2 ELISA. The class given is cell-based, mouse. The conditions noted are these: for epitope mapping by hybridoma response: 15-mers and truncated peptides, hybridomas SC3 and SC22, 48 h co-culture. As to the method: HLA-DR4 transgenic mice were injected subcutaneously with Complete Freund's Adjuvant (CFA) and 100 μg of GAD65 P10 30-mer. After 10 days, splenocytes were isolated and re-stimulated with GAD65 P10 30-mer for a further 4-5 days before fusion with hypoxanthine-aminopterin-thymidine (HAT) sensitive BW5147 cells using polyethylene glycol (PEG). Fused hybridomas were expanded in HAT selection media before antigen-specific screening. Co-cultures of 1×10^5 hybridomas and 2×10^5 Priess cells (an Epstein-Barr Virus (EBV) transformed DR4 (DRB1*04:01) expressing human cell line (ECACC 86052111)) as antigen presenting cells (APCs) were incubated for 48 h in a 96-well plate with peptide, whole GAD65 protein, or media only. Antigen-specific responses were determined by IL-2 secretion into culture supernatant by ELISA assay (BioLegend 431004). Hybridomas that proliferated in response to both GAD65 protein and GAD65 30-mer were single cell cloned by limiting dilution.
Six 15-mers that spanned the parent 30-mer amino acid sequence were generated by 3 amino acid shifts from the N-terminus toward the C-terminus.
For orientation: In an ELISA, binding on a coated surface is turned into a signal by an enzyme label.

A short description of another data set: Solubility in PBS. It counts as physicochemical. The procedure:
Peptides were synthesized by GL Biochem (Shanghai) Ltd or Genscript (Leiden, The Netherlands). Peptides were >90% purity, resuspended from lyophilised powder in either 100% v/v dimethyl sulfoxide (DMSO) for 30-mers or PBS for soluble peptides. GAD65 protein was synthesised by Biologics Corporation. Purified protein derivative (PPD; Prionics; 7600060) was used at 300 IU/mL. Keyhole limpet haemocyanin (KLH; ThermoFisher Scientific; 77600) was used at 20 μg/mL.
Iterations designed around the core minimal epitope included retention of non-critical residues and/or addition of multiple lysine residues to both the N- and C-termini (FIG. 3E). […] Although P10.5.C.6K contains only the critical core epitope with additional lysine residues, the re-inclusion of the single non-critical alanine at the C-terminus (P10.5.C+1.6K), increased the potency of the single-clone hybridoma response by 10-fold (FIG. 3F).

The test system of a further data set is steady-state CD11c+ APCs. In words: Steady state CD11c+ peptide binding assay. The class given is in vivo, HLA-DR4 transgenic mice. Conditions: antigen added exogenously to the in vitro culture. As to the method: HLA-DR4 transgenic mice were injected subcutaneously with 80 μg of GAD65 P10.5.C+1.6K (GAD65 P10Sol) peptide, before isolation of CD11c^+ splenocytes 1 h later CD11c^+ positive selection kit (Miltenyi; 130-125-835). T-cell hybridoma responses were measured by secreted IL-2 after a 48 h co-culture of 0.5×10^5 CD11c^+ cells with 1×10^5 GAD65 P10-specific hybridomas with or without exogenous antigen added in vitro.
(§1) The next step was to test if GAD65 P10.5.C+1.6K (P10Sol; SEQ ID NO 23) could bind to: (i) MHC class II molecules without antigen processing and, (ii) to steady-state CD11c^+ APCs. These properties are good indicators of whether a peptide can induce tolerance and be characterised as an apitope (Shepard et al., 2021). Formaldehyde fixation of splenocytes inhibits antigen processing and so to test whether GAD65 P10Sol could bind directly to cell-surface MHC class II without antigen processing, GAD65 P10-specific hybridoma SC3 was co-cultured with fixed or non-fixed splenocytes from HLA-DR4 transgenic mice. […] To test whether P10Sol could bind to steady-state CD11c^+ APCs in vivo, HLA-DR4 transgenic mice were injected with 80 μg of P10Sol or PBS, with CD11c^+ splenocytes isolated 1 h later and co-cultured with GAD65 P10 hybridomas SC3 or SC22. […]

In data set [2] the test system is MHC class II molecules on fixed or non-fixed HLA-DR4 transgenic mouse splenocytes (hybridoma SC3 readout). In words: Fixed APC T-cell hybridoma screen. The class given is cell-based. Conditions: co-culture with formaldehyde fixed and non-fixed HLA-DR4 splenocytes, 48 h. As to the method: Splenocytes from HLA-DR4 transgenic mice were formaldehyde fixed by the following protocol performed at room temperature; 5 min incubation with 0.5% w/v formaldehyde in PBS at 1×10^6 cells/mL quenched by addition of an equal volume of 0.4 M glycine in PBS solution for a further 5 min, before three washes with cold PBS. T-cell hybridoma screens were set up using 1×10^5 hybridomas and either 2×10^5 formaldehyde fixed APCs or 2×10^5 non-fixed APCs for 48 h co-culture with stimulant or control and responses measured by IL-2 secretion.
as §1

Data set [3] deals with T1, HLA-DR4 MHC class II (HLA-DRA*0101, HLA-DRB1*0401) (human, UniProt P01903 26-254; P01911 30-266, limits assumed).
T1 construct: whole, on cells; On splenocytes or CD11c+ splenocytes of HLA-DR4 transgenic mice; also called MHCII; DR4 (DRB1*04:01)
T1 MHC II alpha: not shown
T1 MHC II beta: not shown
The data set is described as follows: IL-2 response of hybridoma SC3 with formaldehyde-fixed or non-fixed HLA-DR4 transgenic splenocytes.
Excerpt: as §1, with “CD11c⁺” for “CD11c^+”, “mice. Response to whole GAD65 protein required antigen processing from non-fixed splenocytes, whereas both GAD65 P10 30-mer and GAD65 P10Sol (SEQ ID NO 23) induced strong IL-2 responses from hybridoma SC3 when co-cultured with both fixed and non-fixed splenocytes (FIG. 3G).” for “mice.”

For data set [4], the target named is T1, HLA-DR4 MHC class II (HLA-DRA*0101, …). The data set is described as follows: cell-based or functional assay.
Data set [5] concerns the target TCRs of individuals with type 1 diabetes. The data set is described as follows: cell-based or functional assay.

KHKWKLSGVERANSV [P10.5 15-mer]: the “epitope mapping by hybridoma response” value in data set [1] is reported as “responsive 15-mer”.

Turning to “KKKWKLSGVERAKKK [Peptide P10Sol, KKKWKLSGVERAKKK]”, in the data set “Solubility in PBS”, the “solubility in PBS” value was “highly soluble”.

Regarding “KKKWKLSGVERKKK [Peptide P10.5.C.6K, KKKWKLSGVERKKK]”, the “solubility in PBS” value in “Solubility in PBS” is on record as “highly soluble”.

As to WKLSGVER [Peptide P10.5.C], the “epitope mapping by hybridoma response” value in data set [1] is listed as “minimal core epitope”.

In the case of “glutamate decarboxylase 65 (GAD65) [GAD65 protein, reference compound]”, the “IL-2 response of P10-specific hybridomas to CD11c+ cells from PBS injected mice” value with steady-state CD11c+ APCs is “observed”. Moreover, in data set [2], the “IL-2 response from hybridoma SC3” value is recorded as “required antigen processing from non-fixed splenocytes”. Also, the “hybridoma IL-2 response” value in data set [1] (hybridoma multi-clone 6 with HLA-DRB1*04:01 expressing APCs) is “could respond”.

B1: GAD65 P10 30-mer (peptide)
peptide: DAAWGGGLLMSRKHKWKLSGVERANSVTWN
notes: Synthetic 30-residue fragment of human GAD65
With B1, the binding result in data set [3] is listed as “binds”.

Take KKKWKLSGVERAKKK [GAD65 P10.5.C+1.6K (P10Sol)]: the “potency of the single-clone hybridoma IL-2 response with Priess cells, against P10.5.C.6K (SEQ ID NO 22)” value in data set [4] was determined as 10 fold. The molecule also registered an FAIM+ (CD25+ CD71+ CTVmid CD4 T-cell) response of T1D patient PBMCs; share of P10 30-mer responders that also responded to P10Sol in data set [5] of 38%.
